Test results: publication PMC12067442 (Journal of Medicinal Chemistry, 2025)
“And” between values parts separate entries of the source, which are not always exact repeats. Equal values may be shown once.

What was measured:
[1] = target: T1, serotonine (5-HT) transporter (SERT, SLC6A4) (Homo sapiens, UniProt P31645); test: radioligand displacement assay on SERT (Eurofins Cerep SA); assay type: binding; conditions: for inhibition at 10 µM: read-out: % Inhibition @ 10 µM on SERT; for inhibition at 0.1 µM: read-out: % Inhibition @ 100 nM on SERT
T1 construct: purchased Eurofins Cerep SA
T1 sequence (P31645 whole entry): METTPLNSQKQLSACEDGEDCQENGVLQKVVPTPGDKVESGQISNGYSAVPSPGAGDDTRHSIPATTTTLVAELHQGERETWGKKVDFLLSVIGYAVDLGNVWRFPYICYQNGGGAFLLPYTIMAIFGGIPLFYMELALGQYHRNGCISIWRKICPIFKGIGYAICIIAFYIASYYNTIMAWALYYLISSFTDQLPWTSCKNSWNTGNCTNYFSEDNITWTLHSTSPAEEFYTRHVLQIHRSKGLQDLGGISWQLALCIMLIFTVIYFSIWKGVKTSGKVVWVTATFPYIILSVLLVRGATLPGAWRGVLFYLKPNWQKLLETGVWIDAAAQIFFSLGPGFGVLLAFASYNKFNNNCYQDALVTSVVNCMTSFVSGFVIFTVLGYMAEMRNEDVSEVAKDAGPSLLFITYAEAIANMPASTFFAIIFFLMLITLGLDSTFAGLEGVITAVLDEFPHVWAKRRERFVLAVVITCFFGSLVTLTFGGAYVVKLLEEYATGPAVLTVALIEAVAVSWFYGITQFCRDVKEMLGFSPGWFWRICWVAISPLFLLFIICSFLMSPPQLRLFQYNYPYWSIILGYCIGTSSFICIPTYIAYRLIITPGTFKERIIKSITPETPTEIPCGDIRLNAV

[2] = target: T2, norepinephrine transporter (NET, SLC6A2) (Homo sapiens, UniProt P23975); test: radioligand displacement assay on NET (Eurofins Cerep SA); assay type: binding; conditions: for inhibition at 10 µM: read-out: % Inhibition @ 10 µM on NET; for inhibition at 0.01 µM: read-out: % Inhibition @ 10 nM on NET; for inhibition at 0.1 µM: read-out: % Inhibition @ 100 nM on NET
T2 construct: purchased Eurofins Cerep SA
T2 sequence (P23975 whole entry): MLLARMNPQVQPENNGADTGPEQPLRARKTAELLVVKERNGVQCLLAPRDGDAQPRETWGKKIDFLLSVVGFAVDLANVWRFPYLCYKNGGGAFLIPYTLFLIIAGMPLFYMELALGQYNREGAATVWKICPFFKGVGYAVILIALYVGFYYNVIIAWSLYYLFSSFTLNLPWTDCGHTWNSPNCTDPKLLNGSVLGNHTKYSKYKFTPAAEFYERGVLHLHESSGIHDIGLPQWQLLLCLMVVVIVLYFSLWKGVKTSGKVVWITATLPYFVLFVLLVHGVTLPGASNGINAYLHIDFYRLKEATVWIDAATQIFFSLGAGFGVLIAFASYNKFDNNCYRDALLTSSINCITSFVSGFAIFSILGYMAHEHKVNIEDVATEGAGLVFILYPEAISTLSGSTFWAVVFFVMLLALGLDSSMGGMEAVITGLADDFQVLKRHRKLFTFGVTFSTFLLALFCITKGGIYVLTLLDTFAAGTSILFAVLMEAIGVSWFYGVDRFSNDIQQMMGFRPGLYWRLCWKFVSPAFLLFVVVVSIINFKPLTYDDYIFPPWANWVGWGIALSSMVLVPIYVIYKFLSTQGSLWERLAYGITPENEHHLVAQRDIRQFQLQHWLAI

[3] = target: T3, dopamine transporter (DAT, SLC6A3) (Homo sapiens, UniProt Q01959); test: radioligand displacement assay on DAT (Eurofins Cerep SA); assay type: binding; conditions: for inhibition at 10 µM: read-out: % Inhibition @ 10 µM on DAT; for inhibition at 0.1 µM: read-out: % Inhibition @ 100 nM on DAT
T3 construct: purchased Eurofins Cerep SA
T3 sequence (Q01959 whole entry): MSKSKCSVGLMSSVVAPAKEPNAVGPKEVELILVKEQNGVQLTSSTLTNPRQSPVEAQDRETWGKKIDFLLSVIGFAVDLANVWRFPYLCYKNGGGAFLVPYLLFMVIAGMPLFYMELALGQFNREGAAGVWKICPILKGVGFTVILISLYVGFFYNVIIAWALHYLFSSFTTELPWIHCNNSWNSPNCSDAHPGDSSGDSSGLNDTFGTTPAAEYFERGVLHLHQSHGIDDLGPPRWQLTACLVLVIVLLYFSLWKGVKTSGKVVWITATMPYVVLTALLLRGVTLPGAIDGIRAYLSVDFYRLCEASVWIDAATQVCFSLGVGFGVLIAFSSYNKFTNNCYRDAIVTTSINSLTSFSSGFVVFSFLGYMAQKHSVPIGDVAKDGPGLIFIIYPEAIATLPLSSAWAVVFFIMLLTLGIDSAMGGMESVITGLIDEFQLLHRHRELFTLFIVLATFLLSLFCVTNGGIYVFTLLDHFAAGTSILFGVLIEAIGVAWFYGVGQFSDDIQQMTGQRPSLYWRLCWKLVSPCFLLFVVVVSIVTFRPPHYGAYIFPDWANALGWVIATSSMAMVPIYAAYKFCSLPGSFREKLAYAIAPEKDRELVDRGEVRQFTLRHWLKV

Histaminic H2 = target: T4, Histaminic H2 (Homo sapiens, UniProt P25021); test: in vitro polypharmacology panel: Histaminic H2; assay type: binding
T4 construct: purchased Eurofins Cerep SA

Dopamine D2s = target: T5, Dopamine D2s (Homo sapiens, UniProt P14416); test: in vitro polypharmacology panel: Dopamine D2s; assay type: binding
T5 construct: purchased Eurofins Cerep SA
T5 sequence (P14416 1-414 isoform P14416-2): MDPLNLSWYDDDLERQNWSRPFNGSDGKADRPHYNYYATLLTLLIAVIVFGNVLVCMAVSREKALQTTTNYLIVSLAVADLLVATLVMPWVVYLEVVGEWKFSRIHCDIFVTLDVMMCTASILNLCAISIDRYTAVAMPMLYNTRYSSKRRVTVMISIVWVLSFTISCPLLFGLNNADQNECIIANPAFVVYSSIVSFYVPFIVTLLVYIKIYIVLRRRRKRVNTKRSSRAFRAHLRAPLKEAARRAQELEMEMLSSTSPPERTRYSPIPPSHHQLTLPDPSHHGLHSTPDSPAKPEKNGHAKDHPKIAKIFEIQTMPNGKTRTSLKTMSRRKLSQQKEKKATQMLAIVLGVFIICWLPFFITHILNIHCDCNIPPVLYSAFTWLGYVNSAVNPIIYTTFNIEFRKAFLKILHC

hERG = target: T6, hERG (Homo sapiens, UniProt Q12809); test: in vitro polypharmacology panel: hERG; assay type: binding
T6 construct: purchased Eurofins Cerep SA

Histaminic H3 = target: T7, Histaminic H3 (Homo sapiens, UniProt Q9Y5N1); test: in vitro polypharmacology panel: Histaminic H3; assay type: binding
T7 construct: purchased Eurofins Cerep SA
T7 sequence (Q9Y5N1 whole entry): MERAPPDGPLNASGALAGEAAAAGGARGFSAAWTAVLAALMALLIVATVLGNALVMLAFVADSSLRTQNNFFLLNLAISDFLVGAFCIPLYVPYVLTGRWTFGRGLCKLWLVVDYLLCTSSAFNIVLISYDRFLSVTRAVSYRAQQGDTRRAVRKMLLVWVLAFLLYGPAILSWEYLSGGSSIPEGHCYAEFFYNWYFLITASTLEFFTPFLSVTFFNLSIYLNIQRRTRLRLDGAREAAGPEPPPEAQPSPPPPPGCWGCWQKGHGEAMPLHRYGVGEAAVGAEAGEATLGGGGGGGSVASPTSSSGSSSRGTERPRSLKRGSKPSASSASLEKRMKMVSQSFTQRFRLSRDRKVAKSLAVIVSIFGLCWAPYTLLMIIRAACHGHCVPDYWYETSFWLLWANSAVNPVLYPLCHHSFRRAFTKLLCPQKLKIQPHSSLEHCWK

Cannabinoid 2 = target: T8, Cannabinoid 2 (Homo sapiens, UniProt P34972); test: in vitro polypharmacology panel: Cannabinoid 2; assay type: binding
T8 construct: purchased Eurofins Cerep SA

Cannabinoid = target: T9, Cannabinoid (Homo sapiens, UniProt P21554); test: in vitro polypharmacology panel: Cannabinoid; assay type: binding
T9 construct: purchased Eurofins Cerep SA

in vivo = conditions: both, C57BL/6JRJ, mouse, 5 mg/kg
Histaminic H1 = target: T10, Histaminic H1 (Homo sapiens, UniProt P35367); test: in vitro polypharmacology panel: Histaminic H1; assay type: binding
T10 construct: purchased Eurofins Cerep SA

Serotonin 5-HT 2B = target: T11, Serotonin 5-HT 2B (Homo sapiens, UniProt P41595); test: in vitro polypharmacology panel: Serotonin 5-HT 2B; assay type: binding
T11 construct: Eurofins Cerep SA (France), contract assay
T11 sequence (P41595 whole entry): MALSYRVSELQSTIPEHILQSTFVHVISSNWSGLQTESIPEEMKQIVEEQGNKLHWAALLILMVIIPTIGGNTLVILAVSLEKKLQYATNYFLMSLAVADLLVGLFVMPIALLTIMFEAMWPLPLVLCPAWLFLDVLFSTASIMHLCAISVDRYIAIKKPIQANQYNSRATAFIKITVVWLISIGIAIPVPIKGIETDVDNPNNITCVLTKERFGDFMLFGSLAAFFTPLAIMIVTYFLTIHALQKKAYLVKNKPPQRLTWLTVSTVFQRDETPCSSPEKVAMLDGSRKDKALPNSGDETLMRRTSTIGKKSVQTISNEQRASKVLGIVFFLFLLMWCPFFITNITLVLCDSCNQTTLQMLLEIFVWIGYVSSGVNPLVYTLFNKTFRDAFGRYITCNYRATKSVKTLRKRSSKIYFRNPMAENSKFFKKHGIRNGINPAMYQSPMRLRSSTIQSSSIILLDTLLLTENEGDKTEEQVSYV

Dopamine D3 = target: T12, Dopamine D3 (Homo sapiens, UniProt P35462); test: in vitro polypharmacology panel: Dopamine D3; assay type: binding
T12 construct: purchased Eurofins Cerep SA

ACHe = target: T13, ACHe (Homo sapiens, UniProt P22303); test: in vitro polypharmacology panel: ACHe; assay type: binding
T13 construct: purchased Eurofins Cerep SA

Serotonin 5-HT 1A = target: T14, Serotonin 5-HT 1A (Homo sapiens, UniProt P08908); test: in vitro polypharmacology panel: Serotonin 5-HT 1A; assay type: binding
T14 construct: purchased Eurofins Cerep SA

HEK-Gly-RA1 = target: T15, HEK-Gly-RA1 (Homo sapiens, UniProt P23415); test: in vitro polypharmacology panel: HEK-Gly-RA1; assay type: binding
T15 construct: host or cells: HEK
T15 sequence (P23415 29-457): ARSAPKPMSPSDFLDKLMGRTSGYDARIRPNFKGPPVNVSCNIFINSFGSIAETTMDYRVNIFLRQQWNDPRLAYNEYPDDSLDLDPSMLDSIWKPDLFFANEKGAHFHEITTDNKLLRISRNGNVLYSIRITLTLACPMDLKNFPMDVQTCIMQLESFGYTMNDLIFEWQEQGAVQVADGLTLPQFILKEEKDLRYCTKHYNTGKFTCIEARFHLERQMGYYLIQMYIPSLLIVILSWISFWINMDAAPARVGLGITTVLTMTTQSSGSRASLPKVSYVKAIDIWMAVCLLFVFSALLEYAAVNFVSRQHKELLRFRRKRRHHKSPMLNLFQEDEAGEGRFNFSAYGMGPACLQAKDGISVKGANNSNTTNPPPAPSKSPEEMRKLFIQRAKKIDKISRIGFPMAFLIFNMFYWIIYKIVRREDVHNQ

Dopamine D1 = target: T16, Dopamine D1 (Homo sapiens, UniProt P21728); test: in vitro polypharmacology panel: Dopamine D1; assay type: binding
T16 construct: purchased Eurofins Cerep SA
T16 sequence (P21728 whole entry): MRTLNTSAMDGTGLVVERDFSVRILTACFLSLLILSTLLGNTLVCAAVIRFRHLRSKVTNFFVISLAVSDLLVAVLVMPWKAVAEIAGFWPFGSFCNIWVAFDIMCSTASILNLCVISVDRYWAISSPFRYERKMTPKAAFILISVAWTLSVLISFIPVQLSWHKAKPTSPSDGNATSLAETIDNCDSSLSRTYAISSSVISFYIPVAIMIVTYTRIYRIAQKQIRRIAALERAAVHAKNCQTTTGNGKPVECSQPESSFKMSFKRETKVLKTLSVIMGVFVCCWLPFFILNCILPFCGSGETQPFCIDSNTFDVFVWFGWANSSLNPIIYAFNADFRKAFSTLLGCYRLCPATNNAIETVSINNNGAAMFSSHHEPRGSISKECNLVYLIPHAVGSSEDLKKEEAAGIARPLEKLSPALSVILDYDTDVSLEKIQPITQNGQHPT

Dopamine D2L = target: T17, Dopamine D2L (Homo sapiens, UniProt P14416); test: in vitro polypharmacology panel: Dopamine D2L; assay type: binding
T17 construct: purchased Eurofins Cerep SA

Muscarinic M2 = target: T18, Muscarinic M2 (Homo sapiens, UniProt P08172); test: in vitro polypharmacology panel: Muscarinic M2; assay type: binding
T18 construct: purchased Eurofins Cerep SA

Serotonin 5-HT 1B = target: T19, Serotonin 5-HT 1B (Homo sapiens, UniProt P28222); test: in vitro polypharmacology panel: Serotonin 5-HT 1B; assay type: binding
T19 construct: purchased Eurofins Cerep SA

Serotonin 5-HT 3 = target: T20, Serotonin 5-HT 3 (Homo sapiens, UniProt P46098); test: in vitro polypharmacology panel: Serotonin 5-HT 3; assay type: binding
T20 construct: Eurofins Cerep SA (France), contract assay

σ-1R = target: T21, σ-1R (Homo sapiens, UniProt Q99720); test: radioligand displacement assay on σ-1R (Eurofins Cerep SA); assay type: binding; conditions: estimated from duplicate dilution series; read-out: IC50 (nM) sigma-1R
T21 construct: purchased Eurofins Cerep SA
T21 sequence (Q99720 whole entry, species assumed): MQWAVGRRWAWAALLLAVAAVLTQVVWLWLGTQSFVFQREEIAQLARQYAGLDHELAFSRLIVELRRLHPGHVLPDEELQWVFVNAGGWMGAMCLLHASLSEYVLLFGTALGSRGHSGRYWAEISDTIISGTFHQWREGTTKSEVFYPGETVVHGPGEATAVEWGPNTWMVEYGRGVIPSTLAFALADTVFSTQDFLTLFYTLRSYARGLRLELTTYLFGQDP

Serotonin 5-HT 2A = target: T22, Serotonin 5-HT 2A (Homo sapiens, UniProt P28223); test: in vitro polypharmacology panel: Serotonin 5-HT 2A; assay type: binding
T22 construct: Eurofins Cerep SA (France), contract assay

Muscarinic M1 = target: T23, Muscarinic M1 (Homo sapiens, UniProt P11229); test: in vitro polypharmacology panel: Muscarinic M1; assay type: binding
T23 construct: purchased Eurofins Cerep SA
T23 sequence (P11229 whole entry): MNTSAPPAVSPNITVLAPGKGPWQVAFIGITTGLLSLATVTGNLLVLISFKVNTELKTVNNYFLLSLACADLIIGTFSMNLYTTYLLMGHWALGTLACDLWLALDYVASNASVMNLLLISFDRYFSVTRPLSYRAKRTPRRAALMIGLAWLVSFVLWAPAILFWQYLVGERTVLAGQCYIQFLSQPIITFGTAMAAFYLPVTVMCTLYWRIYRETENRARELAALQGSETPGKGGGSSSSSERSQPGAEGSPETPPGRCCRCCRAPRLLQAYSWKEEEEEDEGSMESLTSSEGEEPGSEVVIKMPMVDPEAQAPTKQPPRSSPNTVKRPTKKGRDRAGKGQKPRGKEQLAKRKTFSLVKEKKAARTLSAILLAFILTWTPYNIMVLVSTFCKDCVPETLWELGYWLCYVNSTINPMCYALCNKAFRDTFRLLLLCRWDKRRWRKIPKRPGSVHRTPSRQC

mice = test: observation of mice after acute i.p. administration; assay type: in vivo, C57Bl6/J mice; conditions: 1.0 or 10 mg/kg i.p., male mice
Source text: Fresh bedding and environmental enrichment were provided weekly.

[4] = system: dopamine (DA) uptake in PC12 cells; test: cells; conditions: Rattus norvegicus, PC-12, 2 h, read-out: IC50 (nM) - DA Uptake Inhibition
Source text: The system was operated in positive mode. […] MS peaks were quantified using a calibration curve.

## C1CC[C@H]2NCC[C@H]2NC1 (relative stereo) [2a, Decahydropyrrolo[3,2-b]azepine]
[1]
  inhibition at 10 µM: 7.6%
[2]
  inhibition at 10 µM: 1.7%
[3]
  inhibition at 10 µM: 6.4%

## C1CC[C@@H]2NCC[C@H]2NC1 (relative stereo) [2b, Decahydropyrrolo[3,2-b]azepine]
[1]
  inhibition at 10 µM: -1.9%
[2]
  inhibition at 10 µM: 3%
[3]
  inhibition at 10 µM: 13.6%

## C1CC[C@@H]2NCCC[C@H]2NC1 (relative stereo) [3b]
[1]
  inhibition at 10 µM: 11.8%
[2]
  inhibition at 10 µM: 8.8%
[3]
  inhibition at 10 µM: -5.2%

## c1ccc(CN2CC[C@H]3NCCCC[C@H]32)cc1 (relative stereo) [17a, 1-Benzyldecahydropyrrolo[3,2-b]azepine]
[1]
  inhibition at 10 µM: 21.4%
[2]
  inhibition at 10 µM: 21.7%
[3]
  inhibition at 10 µM: 78.3%

## c1ccc(CN2CC[C@H]3NCCCC[C@@H]32)cc1 (relative stereo) [17b, 1-Benzyldecahydropyrrolo[3,2-b]azepine]
[1]
  inhibition at 10 µM: 13.7%
[2]
  inhibition at 10 µM: 10.8%
[3]
  inhibition at 10 µM: 89%

## c1ccc(CN2CCC[C@H]3NCCCC[C@H]32)cc1 (relative stereo) [27a, 1-Benzyldecahydro-1H-pyrido[3,2-b]azepine]
[1]
  inhibition at 10 µM: 87.7%
[2]
  inhibition at 10 µM: 13.9%
[3]
  inhibition at 10 µM: 85.5%

## c1ccc(CN2CCC[C@H]3NCCCC[C@@H]32)cc1 (relative stereo) [27b, 1-Benzyldecahydro-1H-pyrido[3,2-b]azepine]
[1]
  inhibition at 10 µM: 6.9%
[2]
  inhibition at 10 µM: -5.1%
[3]
  inhibition at 10 µM: 19.4%

## c1ccc(CN2CCCC[C@@H]3NCC[C@H]32)cc1 [1b, 4-Benzyldecahydropyrrolo[3,2-b]azepine]
[1]
  inhibition at 10 µM: 68.6%
[3]
  inhibition at 10 µM: 81.8%

## C1CCC2NCCCCC2NC1 (stereo not shown) [4b, Dodecahydroazepino[3,2-b]azepine]
[1]
  inhibition at 10 µM: -1%
[2]
  inhibition at 10 µM: -7.1%
[3]
  inhibition at 10 µM: -0.5%

## c1ccc(CN2CCCC[C@H]3NCCC[C@H]32)cc1 [40a, 5-Benzyldecahydro-1H-pyrido[3,2-b]azepine]
[1]
  inhibition at 10 µM: 91%
[2]
  inhibition at 10 µM: 88.7%
[3]
  inhibition at 10 µM: 94.4%

## c1ccc(CN2CCCC[C@@H]3NCCC[C@H]32)cc1 [40b, 5-Benzyldecahydro-1H-pyrido[3,2-b]azepine]
[1]
  inhibition at 10 µM: 71%
[2]
  inhibition at 10 µM: 60%
[3]
  inhibition at 10 µM: 41%

## c1ccc(CN2CCCC[C@@H]3NCCCC[C@H]32)cc1 [44b, 6-Benzyldodecahydroazepino[3,2-b]azepine]
[1]
  inhibition at 10 µM: 59.4%
[2]
  inhibition at 10 µM: 31.5%
[3]
  inhibition at 10 µM: 74.9%

## c1ccc(CN2CCCC[C@H]3NCC[C@H]32)cc1 [(R,R)-1a, (3aR,8aR)-4-Benzyldecahydropyrrolo[3,2-b]azepine]
Histaminic H2
  Histaminic H2: -2
Dopamine D2s
  Dopamine D2s (5 µM): 11.7
[1]
  IC50: 250 ± 32 nM
  inhibition at 0.1 µM: 26.3%
  inhibition at 10 µM: 95.9%
hERG
  hERG (5 µM): 12.2
Histaminic H3
  Histaminic H3 (5 µM): 8.6
Cannabinoid 2
  Cannabinoid 2 (5 µM): 11.9
Cannabinoid
  Cannabinoid (5 µM): -13.4
In vivo; iv
  AUC: 799 ng·h/mL
In vivo; po
  AUC: 36.6 ng·h/mL
  Tmax: 15 min
Histaminic H1
  Histaminic H1 (5 µM): -4.3
Serotonin 5-HT 2B
  Serotonin 5-HT 2B (5 µM): 29.7
Dopamine D3
  Dopamine D3 (5 µM): 6.1
ACHe
  ACHe (5 µM): 3.8
Serotonin 5-HT 1A
  Serotonin 5-HT 1A (5 µM): 18.9
HEK-Gly-RA1
  HEK-Gly-RA1 (5 µM): 4
Dopamine D1
  Dopamine D1 (5 µM): 3.5
Dopamine D2L
  Dopamine D2L (5 µM): -0.3
Muscarinic M2
  Muscarinic M2 (5 µM): 28.5
[3]
  IC50: 230 ± 12 nM
  inhibition at 0.1 µM: 29.8%
  inhibition at 10 µM: 97.2%
Serotonin 5-HT 1B
  Serotonin 5-HT 1B (5 µM): -19.8
Serotonin 5-HT 3
  Serotonin 5-HT 3 (5 µM): 5.2
σ-1R
  IC50: ~110 nM and 110 nM
Serotonin 5-HT 2A
  Serotonin 5-HT 2A (5 µM): -0.9
Muscarinic M1
  Muscarinic M1 (5 µM): 78.7
mice; already after 40 min
  phenotype upon acute treatment: pronounced sedative or lethargic phenotype
mice
  signs of acute toxicity (piloerection, hunched posture, convulsions, gastrointestinal distress): no signs of acute toxicity

## Clc1ccc(CN2CCCC[C@H]3NCC[C@H]32)cc1 [(R,R)-58, (3aR,8aR)-4-(4-Chlorobenzyl)decahydropyrrolo[3,2-b]azepine]
[1]
  inhibition at 0.1 µM: 78.2%
[2]
  inhibition at 0.01 µM: -15.2%
  inhibition at 0.1 µM: 6.4%
[3]
  inhibition at 0.1 µM: 12%

## Clc1cccc(CN2CCCC[C@H]3NCC[C@H]32)c1 [(R,R)-59, (3aR,8aR)-4-(3-chlorobenzyl)decahydropyrrolo[3,2-b]azepine]
[1]
  inhibition at 0.1 µM: 98%
[2]
  inhibition at 0.01 µM: 55.9%
  inhibition at 0.1 µM: 97.1%
[3]
  inhibition at 0.1 µM: 74.9%

## Clc1ccccc1CN1CCCC[C@H]2NCC[C@H]21 [(R,R)-60, (3aR,8aR)-4-(2-Chlorobenzyl)decahydropyrrolo[3,2-b]azepine]
[1]
  inhibition at 0.1 µM: 69.1%
[2]
  inhibition at 0.01 µM: 24%
  inhibition at 0.1 µM: 83.4%
[3]
  inhibition at 0.1 µM: 37.5%

## Brc1cccc(CN2CCCC[C@H]3NCC[C@H]32)c1 [(R,R)-61, (3aR,8aR)-4-(3-Bromobenzyl)decahydropyrrolo[3,2-b]azepine]
[1]
  inhibition at 0.1 µM: 96.9%
[2]
  inhibition at 0.01 µM: 56.7%
  inhibition at 0.1 µM: 91.4%
[3]
  inhibition at 0.1 µM: 58%

## c1ccc(CN2CCCC[C@@H]3NCC[C@@H]32)cc1 [(S,S)-1a, (3aS,8aS)-4-Benzyldecahydropyrrolo[3,2-b]azepine]
[1]
  inhibition at 10 µM: 91%
[3]
  inhibition at 10 µM: 94.4%

## Clc1ccc2c(c1)C(N1CCNCC1)=Nc1ccccc1O2 [Amox, amoxapine]
[4]
  IC50: 11 ± 2.3 nM

## COc1ccc(C(CN(C)C)C2(O)CCCCC2)cc1 (stereo not shown) [Venla, venlafaxine]
[4]
  IC50: 1340 ± 128 nM

## (3aR,8aR)-4-(2,3-Dichlorobenzyl)decahydropyrrolo[3,2-b]azepine [(R,R)-62]
[1]
  % Inhibition @ 100 nM on SERT: 97.8%
[2]
  % Inhibition @ 10 nM on NET: 74.8%
  % Inhibition @ 100 nM on NET: 96.4%
[3]
  % Inhibition @ 100 nM on DAT: 15.4%

## (3aR,8aR)-4-(3,5-Dichlorobenzyl)decahydropyrrolo[3,2-b]azepine [(R,R)-63]
[1]
  % Inhibition @ 100 nM on SERT: 99.7%
[2]
  % Inhibition @ 10 nM on NET: 63.4%
  % Inhibition @ 100 nM on NET: 93.7%
[3]
  % Inhibition @ 100 nM on DAT: 89%
